Laboratory results reported in ChEMBL document CHEMBL3792317, “Novel tetrazoloquinoline-rhodanine conjugates: Highly efficient synthesis and biological evaluation” (Bioorg Med Chem Lett, 2016).
Converted amounts (≈) assume the structure as drawn.

What was measured:
[1] = system: Mycobacterium tuberculosis; assay: Antitubercular activity against Mycobacterium tuberculosis H37Ra ATCC 25177 at 3 ug/ml incubated for 40 mins by XTT Reduction Menadione Assay; format: functional; settings: H37Ra ATCC 25177, 40 min, read-out: GI
[2] = system: Mycobacterium tuberculosis; assay: Antitubercular activity against Mycobacterium tuberculosis H37Ra ATCC 25177 at 30 ug/ml incubated for 40 mins by XTT Reduction Menadione Assay; format: functional; settings: H37Ra ATCC 25177, 40 min, read-out: GI
[3] = system: Mycobacterium bovis BCG str. ATCC 35743; assay: Antitubercular activity against dormant Mycobacterium bovis BCG ATCC 35743 at 3 ug/ml incubated for 40 mins by XTT Reduction Menadione Assay; format: functional
[4] = system: Aspergillus niger; assay: Antifungal activity against Aspergillus niger NCIM 1196 after 48 hrs by agar cup plate method; format: functional; settings: NCIM 1196, 48 h
[5] = system: Candida albicans; assay: Antifungal activity against Candida albicans NCIM 3471 after 48 hrs by agar cup plate method; format: functional; settings: NCIM 3471, 48 h
[6] = system: Fusarium oxysporum; assay: Antifungal activity against Fusarium oxysporum NCIM 1332 after 48 hrs by agar cup plate method; format: functional; settings: NCIM 1332, 48 h
[7] = Antitubercular activity against Mycobacterium bovis BCG ATCC 35743 incubated for 40 mins by XTT Reduction Menadione Assay; format: functional, Mycobacterium bovis BCG str. ATCC 35743; settings: Mycobacterium tuberculosis variant bovis BCG, ATCC 35743, 40 min
[8] = system: Cryptococcus neoformans; assay: Antifungal activity against Cryptococcus neoformans NCIM 576 after 48 hrs by agar cup plate method; format: functional; settings: NCIM 576, 48 h
[9] = system: Mycobacterium bovis BCG str. ATCC 35743; assay: Antitubercular activity against dormant Mycobacterium bovis BCG ATCC 35743 at 10 ug/ml incubated for 40 mins by XTT Reduction Menadione Assay; format: functional
[10] = system: Aspergillus flavus; assay: Antifungal activity against Aspergillus flavus NCIM 539 after 48 hrs by agar cup plate method; format: functional; settings: NCIM 539, 48 h
[11] = system: Mycobacterium tuberculosis; assay: Antitubercular activity against Mycobacterium tuberculosis H37Ra ATCC 25177 at 10 ug/ml incubated for 40 mins by XTT Reduction Menadione Assay; format: functional; settings: H37Ra ATCC 25177, 40 min, read-out: GI
[12] = system: Mycobacterium tuberculosis; assay: Antitubercular activity against Mycobacterium tuberculosis H37Ra ATCC 25177 incubated for 40 mins by XTT Reduction Menadione Assay; format: functional; settings: H37Ra ATCC 25177, 40 min
[13] = system: Mycobacterium bovis BCG str. ATCC 35743; assay: Antitubercular activity against dormant Mycobacterium bovis BCG ATCC 35743 at 30 ug/ml incubated for 40 mins by XTT Reduction Menadione Assay; format: functional
[14] = Cytotoxicity against human PANC1 cells after 48 hrs by MTT assay; format: cell-based, PANC-1; settings: for GI50 at 48 h: PANC1 cells; for GI90: panc-1, 48 h
[15] = Cytotoxicity against human THP1 cells after 48 hrs by MTT assay; format: cell-based, THP-1; settings: for GI50 at 48 h: THP1 cells; for GI90: thp-1, 48 h
[16] = system: A549; assay: (§1) Cytotoxicity against human A549 cells after 48 hrs by MTT assay; format: cell-based; settings: a549, 48 h
[17] = as §1; format: cell-based; settings: A549 cells
[18] = system: HeLa; assay: (§2) Cytotoxicity against human HeLa cells after 48 hrs by MTT assay; format: cell-based; settings: hela, 48 h
[19] = as §2; format: cell-based; settings: HeLa cells
[20] = system: Mycobacterium tuberculosis; assay: Antitubercular activity against active Mycobacterium tuberculosis H37Ra ATCC 25177 incubated for 40 mins by XTT Reduction Menadione Assay; format: functional; settings: H37Ra ATCC 25177, 40 min
[21] = system: Mycobacterium tuberculosis; assay: Antitubercular activity against dormant Mycobacterium tuberculosis H37Ra ATCC 25177 incubated for 40 mins by XTT Reduction Menadione Assay; format: functional; settings: H37Ra ATCC 25177, 40 min
[22] = system: Staphylococcus aureus; assay: Antibacterial activity against Staphylococcus aureus after 18 hrs by broth dilution method; format: functional
[23] = system: Pseudomonas fluorescens; assay: Antibacterial activity against Pseudomonas fluorescens after 18 hrs by broth dilution method; format: functional
[24] = system: Bacillus subtilis; assay: Antibacterial activity against Bacillus subtilis after 18 hrs by broth dilution method; format: functional
[25] = system: Escherichia coli; assay: Antibacterial activity against Escherichia coli after 18 hrs by broth dilution method; format: functional

| SMILES | inhibition of growth at 3 µg/mL [1] | inhibition of growth at 30 µg/mL [2] | growth inhibition (GI) [3] | MIC [4] | MIC [5] | MIC [6] | MIC [7] | MIC [8] | growth inhibition (GI) [9] | MIC [10] | inhibition of growth at 10 µg/mL [11] | MIC [12] | growth inhibition (GI) [13] | GI50 at 48 h [14] | GI90 [14] | GI50 at 48 h [15] | GI90 [15] | GI90 [16] | GI50 at 48 h [17] | GI90 [18] | other results |
| --- | --- | --- | --- | --- | --- | --- | --- | --- | --- | --- | --- | --- | --- | --- | --- | --- | --- | --- | --- | --- | --- |
| COc1ccc2cc(/C=C3\SC(=S)N(CCC(=O)O)C3=O)c3nnnn3c2c1 | 0.02% | 12.5% | 18.8% | 50 µg/mL (≈ 120 µM) | 100 µg/mL (≈ 241 µM) | 150 µg/mL (≈ 361 µM) | > 250 µg/mL | 150 µg/mL (≈ 361 µM) | 20.5% | 125 µg/mL (≈ 301 µM) | 21.7% | > 250 µg/mL | 19% | – | – | – | – | – | – | – | – |
| CC(=O)O[C@H]1C(=O)[C@@]2(C)[C@H]([C@H](OC(=O)c3ccccc3)[C@]3(O)C[C@H](OC(=O)[C@H](O)[C@@H](NC(=O)c4ccccc4)c4ccccc4)C(C)=C1C3(C)C)[C@]1(OC(C)=O)CO[C@@H]1C[C@@H]2O [PACLITAXEL] | – | – | – | – | – | – | – | – | – | – | – | – | – | 0.128 µg/mL (≈ 0.15 µM) | 5.715 µg/mL (≈ 6.69 µM) | 0.137 µg/mL (≈ 0.161 µM) | 5.814 µg/mL (≈ 6.81 µM) | 0.038 µg/mL (≈ 0.0445 µM) | < 0.004 µg/mL | 0.075 µg/mL (≈ 0.0878 µM) | GI50 at 48 h [19]: 0.0048 µg/mL (≈ 0.00562 µM) |
| Cc1ccc2c(c1)cc(/C=C1\SC(=S)N(CC(=O)O)C1=O)c1nnnn12 | 17.5% | 36.7% | 20.2% | 150 µg/mL (≈ 389 µM) | 25 µg/mL (≈ 64.9 µM) | 100 µg/mL (≈ 259 µM) | 84.4 µg/mL (≈ 219 µM) | 100 µg/mL (≈ 259 µM) | 35.3% | 50 µg/mL (≈ 130 µM) | 16.3% | 88.1 µg/mL (≈ 229 µM) | -14.8% | > 100 µg/mL | > 100 µg/mL | > 100 µg/mL | > 100 µg/mL | > 100 µg/mL | > 100 µg/mL | > 100 µg/mL | IC90 [20]: 49.2 µg/mL (≈ 128 µM); IC90 [21]: 88.1 µg/mL (≈ 229 µM); GI50 at 48 h [19]: > 100 µg/mL |
| O=C(O)CN1C(=O)/C(=C/c2cc3ccccc3n3nnnc23)SC1=S | 12.2% | 1.49% | -52.6% | 125 µg/mL (≈ 337 µM) | 50 µg/mL (≈ 135 µM) | 50 µg/mL (≈ 135 µM) | > 250 µg/mL | 150 µg/mL (≈ 404 µM) | -28.9% | 125 µg/mL (≈ 337 µM) | -2.04% | > 250 µg/mL | -12.2% | – | – | – | – | – | – | – | MIC [22]: 151 µg/mL (≈ 408 µM); MIC [23]: 182 µg/mL (≈ 489 µM); MIC [24]: 124 µg/mL (≈ 333 µM); MIC [25]: 178 µg/mL (≈ 480 µM) |
| Cc1cccc2cc(/C=C3\SC(=S)N(CC(=O)O)C3=O)c3nnnn3c12 | 44.5% | 28.2% | -41.4% | 100 µg/mL (≈ 259 µM) | 25 µg/mL (≈ 64.9 µM) | 50 µg/mL (≈ 130 µM) | 86 µg/mL (≈ 223 µM) | 125 µg/mL (≈ 324 µM) | -46.2% | 50 µg/mL (≈ 130 µM) | 36.8% | 93.2 µg/mL (≈ 242 µM) | -58.8% | – | – | – | – | – | – | – | MIC [22]: 106 µg/mL (≈ 274 µM); MIC [23]: 162 µg/mL (≈ 420 µM); MIC [24]: 135 µg/mL (≈ 351 µM); MIC [25]: 149 µg/mL (≈ 387 µM) |
| O=C(O)CCN1C(=O)/C(=C/c2cc3ccccc3n3nnnc23)SC1=S | -1.77% | 48.9% | 18.8% | 150 µg/mL (≈ 389 µM) | 100 µg/mL (≈ 259 µM) | 125 µg/mL (≈ 324 µM) | 182 µg/mL (≈ 473 µM) | 175 µg/mL (≈ 454 µM) | 21.6% | 150 µg/mL (≈ 389 µM) | 17.7% | 174 µg/mL (≈ 451 µM) | 47.9% | – | – | – | – | – | – | – | – |
| Clc1ccc(COC(Cn2ccnc2)c2ccc(Cl)cc2Cl)c(Cl)c1 (stereo not drawn) [MICONAZOLE] | – | – | – | 25 µg/mL (≈ 60.1 µM) | 25 µg/mL (≈ 60.1 µM) | 25 µg/mL (≈ 60.1 µM) | – | 25 µg/mL (≈ 60.1 µM) | – | 12.5 µg/mL (≈ 30 µM) | – | – | – | – | – | – | – | – | – | – | – |
| Cc1ccc2c(c1)cc(/C=C1\SC(=S)NC1=O)c1nnnn12 | 21.9% | 10.8% | 8.79% | 25 µg/mL (≈ 76.4 µM) | 150 µg/mL (≈ 458 µM) | 25 µg/mL (≈ 76.4 µM) | > 250 µg/mL | 25 µg/mL (≈ 76.4 µM) | -28% | 100 µg/mL (≈ 305 µM) | 23.7% | > 250 µg/mL | -32.7% | 42 µg/mL (≈ 128 µM) | > 100 µg/mL | 63.3 µg/mL (≈ 193 µM) | 63.3 µg/mL (≈ 193 µM) | 63.3 µg/mL (≈ 193 µM) | 89.2 µg/mL (≈ 273 µM) | > 100 µg/mL | IC90 [20]: > 250 µg/mL; MIC [22]: 159 µg/mL (≈ 486 µM); MIC [23]: 223 µg/mL (≈ 682 µM); MIC [24]: 174 µg/mL (≈ 532 µM); IC90 [21]: > 250 µg/mL; GI50 at 48 h [19]: > 100 µg/mL; MIC [25]: 167 µg/mL (≈ 511 µM) |
